The compounds below were run against T1, human PKCθ full length enzyme (Homo sapiens, UniProt Q04759) (assay: PKCθ IMAP Assay). Details: average value when one or more samples were tested; ATP 6 uM, PKCθ 1 nM.
T1 construct: human PKCθ full length enzyme (Panvera Catalog No. P2996); purchased Panvera P2996
T1 sequence (Q04759 whole entry): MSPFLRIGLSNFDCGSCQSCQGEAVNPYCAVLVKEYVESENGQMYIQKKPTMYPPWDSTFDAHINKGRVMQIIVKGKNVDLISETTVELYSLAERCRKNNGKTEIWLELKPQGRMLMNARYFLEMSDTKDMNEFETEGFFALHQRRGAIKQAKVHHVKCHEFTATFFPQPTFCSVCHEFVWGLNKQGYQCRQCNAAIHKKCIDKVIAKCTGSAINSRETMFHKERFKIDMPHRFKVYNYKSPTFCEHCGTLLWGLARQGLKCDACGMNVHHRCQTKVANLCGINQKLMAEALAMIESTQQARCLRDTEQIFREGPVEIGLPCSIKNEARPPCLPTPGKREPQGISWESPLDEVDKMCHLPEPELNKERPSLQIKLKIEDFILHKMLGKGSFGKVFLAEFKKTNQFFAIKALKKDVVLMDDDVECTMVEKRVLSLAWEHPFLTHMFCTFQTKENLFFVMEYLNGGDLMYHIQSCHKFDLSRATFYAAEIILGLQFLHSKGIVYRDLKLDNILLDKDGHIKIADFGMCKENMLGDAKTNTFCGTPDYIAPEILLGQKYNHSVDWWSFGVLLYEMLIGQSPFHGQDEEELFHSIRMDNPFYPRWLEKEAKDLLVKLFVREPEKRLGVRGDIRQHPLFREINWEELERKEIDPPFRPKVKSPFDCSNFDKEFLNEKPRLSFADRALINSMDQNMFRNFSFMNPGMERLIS
Assay type: biochemical
Summary of the method: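 Full-length human PKCθ (1 nM final) with 6 uM ATP and 100 nM 5FAM-labelled peptide, 5% DMSO, 3.0 mM DTT in reaction buffer. 25 min at room temperature; IMAP bead binding 20 min, fluorescence polarization read. Compounds 2:1 serially diluted; no-ATP and no-enzyme wells as controls.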
`Cc1c(Nc2c(C#N)cnc3sc(-c4cccc(C(=O)N(C)CCN(C)C)c4)cc23)ccc2[nH]ccc12` [Compound 348, 3-{5-cyano-4-[(4-methyl-1H-indol-5-yl)amino]thieno[2,3-b]pyridin-2-yl}-N-[2-(dimethylamino)ethyl]-N-methylbenzamide] gave an IC50 of 18 nM. Work on `Cc1c(Nc2c(C#N)cnc3sc(-c4ccc(C(=O)NCCN(C)C)cc4)cc23)ccc2[nH]ccc12` [Compound 349, 4-{5-cyano-4-[(4-methyl-1H-indol-5-yl)amino]thieno[2,3-b]pyridin-2-yl}-N-[2-(dimethylamino)ethyl]benzamide] yielded an IC50 of 16 nM. Compound `Cc1c(Nc2c(C#N)cnc3sc(-c4ccc(OCCCN(C)C)nc4)cc23)ccc2[nH]ccc12` [Compound 350, 2-{6-[3-(dimethylamino)propoxy]pyridin-3-yl}-4-[(4-methyl-1H-indol-5-yl)amino]thieno[2,3-b]pyridine-5-carbonitrile] has an IC50 of 34 nM. `Cc1c(Nc2c(C#N)cnc3sc(-c4ccc(OCCCl)cc4)cc23)ccc2[nH]ccc12` [Compound 351, 2-[4-(2-chloroethoxy)phenyl]-4-[(4-methyl-1H-indol-5-yl)amino]thieno[2,3-b]pyridine-5-carbonitrile] was tested, and the IC50 was 120 nM. `Cc1c(Nc2c(C#N)cnc3sc(-c4ccc(NCCN5CCOCC5)nc4)cc23)ccc2[nH]ccc12` [Compound 352, 4-[(4-methyl-1H-indol-5-yl)amino]-2-{6-[(2-morpholin-4-ylethyl)amino]pyridin-3-yl}thieno[2,3-b]pyridine-5-carbonitrile] showed an IC50 of 23 nM. In the case of `Cc1c(Nc2c(C#N)cnc3sc(-c4cccc(C(=O)N(C)C)c4)cc23)ccc2[nH]ccc12` [Compound 353, 3-{5-cyano-4-[(4-methyl-1H-indol-5-yl)amino]thieno[2,3-b]pyridin-2-yl}-N,N-dimethylbenzamide], the IC50 is reported as 36 nM. With `CON(C)C(=O)c1cccc(-c2cc3c(Nc4ccc5[nH]ccc5c4C)c(C#N)cnc3s2)c1` [Compound 354, 3-{5-cyano-4-[(4-methyl-1H-indol-5-yl)amino]thieno[2,3-b]pyridin-2-yl}-N-methoxy-N-methylbenzamide] the IC50 was 18 nM. Work on `CON(C)C(=O)c1ccc(-c2cc3c(Nc4ccc5[nH]ccc5c4C)c(C#N)cnc3s2)cc1` [Compound 357, 4-{5-cyano-4-[(4-methyl-1H-indol-5-yl)amino]thieno[2,3-b]pyridin-2-yl}-N-methoxy-N-methylbenzamide] yielded an IC50 of 48 nM. `CONC(=O)c1ccc(-c2cc3c(Nc4ccc5[nH]ccc5c4C)c(C#N)cnc3s2)cc1` [Compound 358, 4-{5-cyano-4-[(4-methyl-1H-indol-5-yl)amino]thieno[2,3-b]pyridin-2-yl}-N-methoxybenzamide] gave an IC50 of 10 nM. `CS(=O)(=O)Nc1cccc(-c2cc3c(Nc4ccc5[nH]ccc5c4)c(C#N)cnc3s2)c1` [Compound 359, N-{3-[5-cyano-4-(1H-indol-5-ylamino)thieno[2,3-b]pyridin-2-yl]phenyl}methanesulfonamide] showed an IC50 of 245 nM. `Cc1c(Nc2c(C#N)cnc3sc(-c4cccc(NS(C)(=O)=O)c4)cc23)ccc2[nH]ccc12` [Compound 360, N-(3-{5-cyano-4-[(4-methyl-1H-indol-5-yl)amino]thieno[2,3-b]pyridin-2-yl}phenyl)methanesulfonamide] was tested, and the IC50 was 23 nM. Compound `Cc1c(Nc2c(C#N)cnc3sc(-c4ccc(NS(C)(=O)=O)cc4)cc23)ccc2[nH]ccc12` [Compound 361, N-(4-{5-cyano-4-[(4-methyl-1H-indol-5-yl)amino]thieno[2,3-b]pyridin-2-yl}phenyl)methanesulfonamide] has an IC50 of 43 nM. `Cc1c(Nc2c(C#N)cnc3sc(-c4ccc5ccccc5c4)cc23)ccc2[nH]ccc12` [Compound 362, 4-[(4-methyl-1H-indol-5-yl)amino]-2-(2-naphthyl)thieno[2,3-b]pyridine-5-carbonitrile] gave an IC50 of 72 nM. `Cc1c(Nc2c(C#N)cnc3sc(-c4cccc5ccccc45)cc23)ccc2[nH]ccc12` [Compound 363, 4-[(4-methyl-1H-indol-5-yl)amino]-2-(1-naphthyl)thieno[2,3-b]pyridine-5-carbonitrile] gave an IC50 of 401 nM. With `COc1ccccc1-c1cc2c(Nc3ccc4[nH]ccc4c3C)c(C#N)cnc2s1` [Compound 364, 2-(2-methoxyphenyl)-4-[(4-methyl-1H-indol-5-yl)amino]thieno[2,3-b]pyridine-5-carbonitrile] the IC50 was 22 nM. Compound `Cc1c(Nc2c(C#N)cnc3sc(-c4cc(C=O)cc(OC(C)C)c4)cc23)ccc2[nH]ccc12` [Compound 365, 2-(3-formyl-5-isopropoxyphenyl)-4-[(4-methyl-1H-indol-5-yl)amino]thieno[2,3-b]pyridine-5-carbonitrile] has an IC50 of 103 nM. Compound `COc1ccc(C)cc1-c1cc2c(Nc3ccc4[nH]ccc4c3C)c(C#N)cnc2s1` [Compound 366, 2-(2-methoxy-5-methylphenyl)-4-[(4-methyl-1H-indol-5-yl)amino]thieno[2,3-b]pyridine-5-carbonitrile] has an IC50 of 106 nM. Work on `CCOc1ccc(CN(C)C)cc1-c1cc2c(Nc3ccc4[nH]ccc4c3C)c(C#N)cnc2s1` [Compound 367, 2-{5-[(dimethylamino)methyl]-2-ethoxyphenyl}-4-[(4-methyl-1H-indol-5-yl)amino]thieno[2,3-b]pyridine-5-carbonitrile] yielded an IC50 of 7 nM. With `Cc1ccc(CN(C)C)cc1-c1cc2c(Nc3ccc4[nH]ccc4c3C)c(C#N)cnc2s1` [Compound 368, 2-{5-[(dimethylamino)methyl]-2-methylphenyl}-4-[(4-methyl-1H-indol-5-yl)amino]thieno[2,3-b]pyridine-5-carbonitrile] the IC50 was 100 nM. In the case of `COc1ccc(C(=O)N(C)C)cc1-c1cc2c(Nc3ccc4[nH]ccc4c3C)c(C#N)cnc2s1` [Compound 369, 3-{5-cyano-4-[(4-methyl-1H-indol-5-yl)amino]thieno[2,3-b]pyridin-2-yl}-4-methoxy-N,N-dimethylbenzamide], the IC50 is reported as 30 nM. `CS(=O)(=O)Nc1ccccc1-c1cc2c(Nc3ccc4[nH]ccc4c3)c(C#N)cnc2s1` [Compound 370, N-{2-[5-cyano-4-(1H-indol-5-ylamino)thieno[2,3-b]pyridin-2-yl]phenyl}methanesulfonamide] showed an IC50 of 1010 nM. In the case of `Cc1c(Nc2c(C#N)cnc3sc(-c4ccccc4NS(C)(=O)=O)cc23)ccc2[nH]ccc12` [Compound 371, N-(2-{5-cyano-4-[(4-methyl-1H-indol-5-yl)amino]thieno[2,3-b]pyridin-2-yl}phenyl)methanesulfonamide], the IC50 is reported as 182 nM. `Cc1c(Nc2c(C#N)cnc3sc(-c4ccc(NS(C)(=O)=O)cc4)c(C)c23)ccc2[nH]ccc12` [Compound 372, N-(4-{5-cyano-3-methyl-4-[(4-methyl-1H-indol-5-yl)amino]thieno[2,3-b]pyridin-2-yl}phenyl)methanesulfonamide] gave an IC50 of 627 nM. With `Cc1c(Nc2c(C#N)cnc3sc(-c4cc5ccccc5s4)cc23)ccc2[nH]ccc12` [Compound 373, 2-(1-benzothien-2-yl)-4-[(4-methyl-1H-indol-5-yl)amino]thieno[2,3-b]pyridine-5-carbonitrile] the IC50 was 57 nM. `Cc1c(Nc2c(C#N)cnc3sc(-c4cc5cc(C=O)ccc5s4)cc23)ccc2[nH]ccc12` [Compound 374, 2-(5-formyl-1-benzothien-2-yl)-4-[(4-methyl-1H-indol-5-yl)amino]thieno[2,3-b]pyridine-5-carbonitrile] gave an IC50 of 140 nM. `Cc1c(Nc2c(C#N)cnc3sc(-c4cccc(S(C)(=O)=O)c4)cc23)ccc2[nH]ccc12` [Compound 375, 4-[(4-methyl-1H-indol-5-yl)amino]-2-[3-(methylsulfonyl)phenyl]thieno[2,3-b]pyridine-5-carbonitrile] gave an IC50 of 41 nM. `Cc1c(Nc2c(C#N)cnc3sc(-c4ccc(S(C)(=O)=O)cc4)cc23)ccc2[nH]ccc12` [Compound 376, 4-[(4-methyl-1H-indol-5-yl)amino]-2-[4-(methylsulfonyl)phenyl]thieno[2,3-b]pyridine-5-carbonitrile] showed an IC50 of 26 nM. Compound `Cc1c(Nc2c(C#N)cnc3sc(-c4cccc(Br)c4)cc23)ccc2[nH]ccc12` [Compound 377, 2-(3-bromophenyl)-4-[(4-methyl-1H-indol-5-yl)amino]thieno[2,3-b]pyridine-5-carbonitrile] has an IC50 of 141 nM. Compound `Cc1cc(C=O)cc(-c2cc3c(Nc4ccc5[nH]ccc5c4C)c(C#N)cnc3s2)c1` [Compound 378, 2-(3-formyl-5-methylphenyl)-4-[(4-methyl-1H-indol-5-yl)amino]thieno[2,3-b]pyridine-5-carbonitrile] has an IC50 of 98 nM. Compound `CCCOc1c(C=O)cc(C)cc1-c1cc2c(Nc3ccc4[nH]ccc4c3C)c(C#N)cnc2s1` [Compound 379, 2-(3-formyl-5-methyl-2-propoxyphenyl)-4-[(4-methyl-1H-indol-5-yl)amino]thieno[2,3-b]pyridine-5-carbonitrile] has an IC50 of 169 nM. Compound `Cc1c(Nc2c(C#N)cnc3sc(-c4cnc5ccccc5c4)cc23)ccc2[nH]ccc12` [Compound 380, 4-[(4-methyl-1H-indol-5-yl)amino]-2-quinolin-3-ylthieno[2,3-b]pyridine-5-carbonitrile] has an IC50 of 16 nM. `CCCCOc1ccccc1-c1cc2c(Nc3ccc4[nH]ccc4c3C)c(C#N)cnc2s1` [Compound 381, 2-(2-butoxyphenyl)-4-[(4-methyl-1H-indol-5-yl)amino]thieno[2,3-b]pyridine-5-carbonitrile] showed an IC50 of 1980 nM. Work on `CCCOc1ccccc1-c1cc2c(Nc3ccc4[nH]ccc4c3C)c(C#N)cnc2s1` [Compound 382, 4-[(4-methyl-1H-indol-5-yl)amino]-2-(2-propoxyphenyl)thieno[2,3-b]pyridine-5-carbonitrile] yielded an IC50 of 570 nM. `Cc1c(Nc2c(C#N)cnc3sc(-c4ccccc4OCCCN(C)C)cc23)ccc2[nH]ccc12` [Compound 383, 2-{2-[3-(dimethylamino)propoxy]phenyl}-4-[(4-methyl-1H-indol-5-yl)amino]thieno[2,3-b]pyridine-5-carbonitrile] gave an IC50 of 64 nM.

— patent publication US20070082880A1 (priority 2005, published 2007)
